The values that follow come from patent US20230255964A1, “EXTENDED RELEASE DOSAGE FORMS FOR TYK2 INHIBITORS” (Bristol-Myers Squibb Company, priority 2019, published 2023).

One data set in a line: pH-dependent solubility. Conditions: pHs > 4. In kind it is physicochemical. The source says:
For immediate release formulations, such pH-dependent properties may result in a reduction in bioavailability when dosed with acid reducing agents, such as, e.g., famotidine or omeprazole. […] While using the higher-energy, amorphous free base form of BMS-986165 helps address the above challenges, formulating amorphous BMS-986165 presents other challenges, including ensuring physical stability of the amorphous form during storage, and maintaining supersaturation of the compound during dissolution in the GI tract.

Data set [1] in a line: Chemical stability of BMS-986165:HPMCAS-H SDDs upon storage (related substances). In kind it is physicochemical. To be noted: API standard, no stability condition printed. On the procedure: Lots of 25% w/w BMS-986165 SDD with HPMCAS-H were assessed for physical and chemical stability. […] Dissolution performance in the microcentrifuge test was unchanged.
There was no evidence of crystallization by PXRD in any SDD after storage for up to 6 months at 40° C./75%RH open (FIG. 1A and FIG. 1B). DSC data indicated slight changes similar to those observed in 25% w/w BMS-986165 SDD after exposure to 50° C./75%RH or 40° C./75%RH but there was no trend with API loading and the results were considered to reflect an “ageing” or “annealing” effect rather than crystal formation. Scanning electron microscopy (SEM) images confirmed the presence of a single phase homogenous dispersion (FIGS. 2A-C, FIGS. 3A-C, FIGS. 4A-C).

As for `[2H]C([2H])([2H])NC(=O)c1nnc(NC(=O)C2CC2)cc1Nc1cccc(-c2ncn(C)n2)c1OC` [BMS-986165 crystalline free base, 6-(cyclopropaneamido)-4-((2-methoxy-3-(1-methyl-1H-1,2,4-triazol-3-yl)phenyl)amino)-N-(methyl-d3)pyridazine-3-carboxamide], the solubility result in “pH-dependent solubility” was “low solubility”.
Turning to `[2H]C([2H])([2H])NC(=O)c1nnc(NC(=O)C2CC2)cc1Nc1cccc(-c2ncn(C)n2)c1OC` [BMS-986165, 6-(cyclopropaneamido)-4-((2-methoxy-3-(1-methyl-1H-1,2,4-triazol-3-yl)phenyl)amino)-N-(methyl-d3)pyridazine-3-carboxamide], in data set [1], the “BMS-986165 (relative ret. time 1.00), related substances” value turned out to be 99.48 and the Total imporities >LOQ is 0.52%.
